Experimental findings from patent US8846947B2, “Benzimidazoles and related analogs as sirtuin modulators” (GlaxoSmithKline LLC, priority 2008, dated 2014) are described below.

Where two headings read alike, the source gives them in different places.

The target in the experiment is T1, SIRT1 (Homo sapiens, UniProt Q96EB6).
T1 sequence (Q96EB6 1-747): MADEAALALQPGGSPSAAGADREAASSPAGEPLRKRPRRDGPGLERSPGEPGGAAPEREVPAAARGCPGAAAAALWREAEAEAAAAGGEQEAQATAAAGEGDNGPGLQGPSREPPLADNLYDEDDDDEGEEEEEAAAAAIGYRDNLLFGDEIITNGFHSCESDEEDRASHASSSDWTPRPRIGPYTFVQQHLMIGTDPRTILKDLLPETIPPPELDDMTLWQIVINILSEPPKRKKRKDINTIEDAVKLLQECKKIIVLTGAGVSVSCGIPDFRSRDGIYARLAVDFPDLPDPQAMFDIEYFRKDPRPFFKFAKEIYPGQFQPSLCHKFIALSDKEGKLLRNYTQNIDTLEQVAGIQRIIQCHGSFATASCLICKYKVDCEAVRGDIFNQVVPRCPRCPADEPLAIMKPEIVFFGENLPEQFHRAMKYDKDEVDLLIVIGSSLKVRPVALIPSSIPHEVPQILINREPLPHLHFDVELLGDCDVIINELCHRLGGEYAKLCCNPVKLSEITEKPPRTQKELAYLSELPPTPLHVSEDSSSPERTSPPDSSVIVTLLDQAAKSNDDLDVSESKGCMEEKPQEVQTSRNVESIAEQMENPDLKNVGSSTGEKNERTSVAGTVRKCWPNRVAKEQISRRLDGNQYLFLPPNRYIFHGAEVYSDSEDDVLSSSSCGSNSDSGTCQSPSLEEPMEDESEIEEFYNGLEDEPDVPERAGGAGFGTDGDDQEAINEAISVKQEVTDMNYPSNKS
In words: Mass spectrometry based SIRT1 deacetylase activation assay (acetylated p53-derived peptide substrate). The experiment is classed as biochemical. An excerpt: A mass spectrometry based assay was used to identify modulators of SIRT1 activity. The mass spectrometry based assay utilizes a peptide having 20 amino acid residues as follows: Ac-EE-K(biotin)-GQSTSSHSK(Ac)NleSTEG-K(5TMR)-EE-NH2 (SEQ ID NO: 1) wherein K(Ac) is an acetylated lysine residue and Nle is a norleucine. The peptide is labeled with the fluorophore 5TMR (excitation 540 nm/emission 580 nm) at the C-terminus. The sequence of the peptide substrate is based on p53 with several modifications. In addition, the methionine residue naturally present in the sequence was replaced with the norleucine because the methionine may be susceptible to oxidation during synthesis and purification.
The mass spectrometry assay is conducted as follows: 0.5 μM peptide substrate and 120 μM βNAD^+ is incubated with 10 nM SIRT1 for 25 minutes at 25° C. in a reaction buffer (50 mM Tris-acetate pH 8, 137 mM NaCl, 2.7 mM KCl, 1 mM MgCl2, 5 mM DTT, 0.05% BSA). Test compounds may be added to the reaction as described above. […] After the 25 minute incubation with SIRT1, 10 μL of 10% formic acid is added to stop the reaction. Reactions are sealed and frozen for later mass spec analysis. Determination of the mass of the substrate peptide allows for precise determination of the degree of acetylation (i.e. starting material) as compared to deacetylated peptide (product).
A control for inhibition of sirtuin activity is conducted by adding 1 μL of 500 mM nicotinamide as a negative control at the start of the reaction (e.g., permits determination of maximum sirtuin inhibition). A control for activation of sirtuin activity is conducted using 10 nM of sirtuin protein, with 1 μL of DMSO in place of compound, to determine the amount of deacetylation of the substrate at a given timepoint within the linear range of the assay. This timepoint is the same as that used for test compounds and, within the linear range, the endpoint represents a change in velocity.
For the above assay, SIRT1 protein was expressed and purified as follows. […] The protein was expressed by induction with 1 mM IPTG as an N-terminal His-tag fusion protein at 18° C. overnight and harvested at 30,000×g. Cells were lysed with lysozyme in lysis buffer (50 mM Tris-HCl, 2 mM Tris[2-carboxyethyl]phosphine (TCEP), 10 μM ZnCl2, 200 mM NaCl) and further treated with sonication for 10 min for complete lysis. The protein was purified over a Ni-NTA column (Amersham) and fractions containing pure protein were pooled, concentrated and run over a sizing column (Sephadex S200 26/60 global). The peak containing soluble protein was collected and run on an Ion-exchange column (MonoQ). Gradient elution (200 mM-500 mM NaCl) yielded pure protein. This protein was concentrated and dialyzed against dialysis buffer (20 mM Tris-HCl, 2 mM TCEP) overnight. The protein was aliquoted and frozen at −80° C. until further use.
Sirtuin modulating compounds that activated SIRT1 were identified using the assay described above and are shown below in Table 1. The EC1.5 values for the activating compounds are represented by A (EC1.5<1.0 uM), B (EC1.5 1-25 uM), C (EC1.5 >25 uM). The percent maximum fold activation is represented by A (Fold activation >200%) or B (Fold Activation <200%).

The mark [1] stands for this setting: 0.5 μM peptide substrate, 120 μM βNAD+, 10 nM SIRT1, 25 minutes at 25° C.
Where [2] appears, read: 0.5 μM peptide substrate, 120 μM βNAD+, 10 nM SIRT1, 25 min at 25° C.
Setting [3] is: 0.5 μM peptide substrate, 120 μM βNAD+, 10 nM SIRT1, 25 min at 25° C., read-out: EC1.5.

For the compound `O=C(Nc1nccs1)c1cccc2[nH]c(-c3ccnc(Cl)c3)nc12` [Compound 231], the EC1.5 entry was “A (EC1.5<1.0 uM)” and the “Fold Act. (percent maximum fold activation)” value is reported as “A (Fold activation >200%)”.

Regarding `O=C(Nc1ccccn1)c1cc(F)cc2nc(-c3ccc(F)cc3C(F)F)[nH]c12` [Compound 826], under setting [1], the EC1.5 entry is “A (EC1.5<1.0 uM)” and the “Fold Act. (percent maximum fold activation)” value is “A (Fold activation >200%)”.

On to `O=C(Nc1nccs1)c1cccc2[nH]c(-c3ccc(N4CCOCC4)cc3)nc12` [Compound 268], for which the EC1.5 entry is “A (EC1.5<1.0 uM)” and the “Fold Act. (percent maximum fold activation)” value is recorded as “A (Fold activation >200%)”.

`O=C(Nc1cccnn1)c1cccc2[nH]c(-c3ccccc3C(F)(F)F)nc12` [Compound 451]: the “Fold Act. (percent maximum fold activation)” value under setting [2] was “A (Fold activation >200%)”. Further, under setting [3], the EC1.5 was less than 1000 nM.

Consider `O=C(Nc1nccs1)c1cccc2[nH]c(-c3cccc(OC4CCNCC4)c3)nc12` [Compound 426], for which, under setting [2], the “Fold Act. (percent maximum fold activation)” value is “A (Fold activation >200%)”. Besides, the EC1.5 under setting [3] was less than 1000 nM.

Turning to `O=C(Nc1ccc(Cl)nn1)c1cccc2[nH]c(-c3cccc(C(F)(F)F)c3)nc12` [Compound 309], the EC1.5 result was “C (EC1.5 >25 uM)” and the “Fold Act. (percent maximum fold activation)” value is reported as “B (Fold Activation <200%)”.

Regarding `O=C(Nc1cccc2[nH]c(-c3ccc(Cl)cc3C(F)(F)F)nc12)c1cccnc1` [Compound 418], the “Fold Act. (percent maximum fold activation)” value under setting [2] is reported as “A (Fold activation >200%)”. Further, under setting [3], the EC1.5 was in the range of 1000 to 25000 nM.

On to `O=C(Nc1ccncn1)c1cccc2[nH]c(-c3ccc(N4CCOCC4)cc3C(F)(F)F)nc12` [Compound 591], for which, under setting [2], the “Fold Act. (percent maximum fold activation)” value is listed as “A (Fold activation >200%)”. Besides, under setting [3], the EC1.5 was less than 1000 nM.

For `O=C(Nc1nccs1)c1cccc2[nH]c(-c3ccc(OCCN4CCOCC4)cc3)nc12` [Compound 339], the EC1.5 entry is “A (EC1.5<1.0 uM)” and the “Fold Act. (percent maximum fold activation)” value is on record as “A (Fold activation >200%)”.

As to `Cc1cc(C)nc(NC(=O)c2cccc3[nH]c(-c4cccc(C(F)(F)F)c4)nc23)c1` [Compound 279], the EC1.5 result is “A (EC1.5<1.0 uM)” and the “Fold Act. (percent maximum fold activation)” value is recorded as “A (Fold activation >200%)”.

Turning to `O=C(Nc1cccc(OC[C@@H](O)CO)c1)c1cccc2[nH]c(-c3ccc(F)cc3C(F)F)nc12` [Compound 718], under setting [1], the EC1.5 entry was “A (EC1.5<1.0 uM)” and the “Fold Act. (percent maximum fold activation)” value is listed as “A (Fold activation >200%)”.

`O=C(Nc1cccc(CN2CCOCC2)n1)c1cccc2[nH]c(-c3cccc(F)c3)nc12` [Compound 851]: under setting [1], the EC1.5 result is “A (EC1.5<1.0 uM)” and the “Fold Act. (percent maximum fold activation)” value is “A (Fold activation >200%)”.

Consider `O=C(Nc1nccs1)c1cncc2[nH]c(-c3ccccc3C(F)(F)F)nc12` [Compound 341, N-(thiazol-2-yl)-2-(2-(trifluoromethyl)phenyl)-3H-imidazo[4,5-c]pyridine-7-carboxamide], for which the EC1.5 entry is on record as “A (EC1.5<1.0 uM)” and the “Fold Act. (percent maximum fold activation)” value is given as “A (Fold activation >200%)”.

`O=C(Nc1nccs1)c1cccc2[nH]c(-c3cc(F)ccc3C(F)(F)F)nc12` [Compound 302]: the EC1.5 entry is listed as “A (EC1.5<1.0 uM)” and the “Fold Act. (percent maximum fold activation)” value is recorded as “A (Fold activation >200%)”.

With `O=C(Nc1cccc2[nH]c(-c3cccc(N4CCOCC4)c3)nc12)c1ccccn1` [Compound 367], the EC1.5 entry is “B (EC1.5 1-25 uM)” and the “Fold Act. (percent maximum fold activation)” value is listed as “A (Fold activation >200%)”.

With `CS(=O)(=O)c1cc(Cl)ccc1-c1nc2c(C(=O)Nc3nccs3)cccc2[nH]1` [Compound 520], the “Fold Act. (percent maximum fold activation)” value under setting [2] is “A (Fold activation >200%)”. For the same compound, under setting [3], the EC1.5 was 1000 to 25000 nM.

Take `Cc1cc(C)nc(NC(=O)c2cccc3[nH]c(-c4ccnn4-c4ccccc4)nc23)c1` [Compound 422]: under setting [2], the “Fold Act. (percent maximum fold activation)” value is given as “A (Fold activation >200%)”. Moreover, under setting [3], the EC1.5 is less than 1000 nM.

As to `O=C(Nc1nccs1)c1cccc2[nH]c(-c3cccc(-c4ccccc4)c3)nc12` [Compound 222], the EC1.5 result is “C (EC1.5 >25 uM)” and the “Fold Act. (percent maximum fold activation)” value is given as “B (Fold Activation <200%)”.

As for `O=C(Nc1ccccn1)c1cccc2[nH]c(-c3ccccc3OCCN3CCOCC3)nc12` [Compound 474], under setting [2], the “Fold Act. (percent maximum fold activation)” value is “A (Fold activation >200%)”. Under setting [3], the EC1.5 lay in the range of 1000 to 25000 nM.

As to `O=C(Nc1ccncc1)c1cccc2[nH]c(-c3cccc(N4CCOCC4)c3)nc12` [Compound 287], the EC1.5 result is recorded as “A (EC1.5<1.0 uM)” and the “Fold Act. (percent maximum fold activation)” value is “A (Fold activation >200%)”.

For `O=C(Nc1cccc(N2CCOCC2)n1)c1cccc2[nH]c(-c3ccc(Cl)cc3C(F)(F)F)nc12` [Compound 868, 2-(4-chloro-2-(trifluoromethyl)phenyl)-N-(6-morpholinopyridin-2-yl)-1H-benzo[d]imidazole-4-carboxamide], under setting [1], the EC1.5 entry was “A (EC1.5<1.0 uM)” and the “Fold Act. (percent maximum fold activation)” value was “A (Fold activation >200%)”.

Turning to `O=C(Nc1cccc(CN2CCOCC2)n1)c1cccc2[nH]c(-c3ccc(F)cc3C(F)F)nc12` [Compound 818], under setting [1], the EC1.5 result is given as “A (EC1.5<1.0 uM)” and the “Fold Act. (percent maximum fold activation)” value is “A (Fold activation >200%)”.

For `Cc1cnc(NC(=O)c2cccc3[nH]c(-c4ccccc4C(F)(F)F)nc23)s1` [Compound 343], the EC1.5 result was “A (EC1.5<1.0 uM)” and the “Fold Act. (percent maximum fold activation)” value is “A (Fold activation >200%)”.

In the case of `CC1(C)CN(CCOc2ccccc2-c2nc3c(C(=O)Nc4nccs4)cccc3[nH]2)CCO1` [Compound 711], under setting [1], the EC1.5 entry is “A (EC1.5<1.0 uM)” and the “Fold Act. (percent maximum fold activation)” value is listed as “A (Fold activation >200%)”.

Turning to `O=C(Nc1ccc(CN2CCCC2)cn1)c1cccc2[nH]c(-c3ccc(Cl)cc3C(F)(F)F)nc12` [Compound 542], the “Fold Act. (percent maximum fold activation)” value under setting [2] is on record as “A (Fold activation >200%)”. Further, the EC1.5 under setting [3] was less than 1000 nM.

Regarding `O=C(Nc1ccccn1)c1cccc2[nH]c(-c3ccc(N4CCCC4)cc3C(F)(F)F)nc12` [Compound 605], under setting [1], the EC1.5 result was “B (EC1.5 1-25 uM)” and the “Fold Act. (percent maximum fold activation)” value is “A (Fold activation >200%)”.

As for `O=C(Nc1nccs1)c1cccc2[nH]c(-c3cc(Cl)ccc3OCCN3CCOCC3)nc12` [Compound 501], the “Fold Act. (percent maximum fold activation)” value under setting [2] is given as “A (Fold activation >200%)”. Also, the EC1.5 under setting [3] is less than 1000 nM.

For `O=C(Nc1cccnc1)c1cncc2[nH]c(-c3cc(F)ccc3C(F)(F)F)nc12` [Compound 655], under setting [1], the EC1.5 entry was “A (EC1.5<1.0 uM)” and the “Fold Act. (percent maximum fold activation)” value is recorded as “A (Fold activation >200%)”.
